From EP4782440A9, “PSMA COMPOUND, AND PHARMACEUTICAL COMPOSITION CONTAINING SAME AND USE THEREOF” (VITSGEN THERAPEUTICS INC., priority 2023, dated 2025)

System: LnCaP cells
Test: LnCaP cell uptake and internalization
Assay type: cell-based
Details: Table 4, 177Lu-labelled, 37 °C, 45 min
Description: Table 4. Conditions and results of LnCaP cell uptake
wherein [formula] Table 5. Detailed results of LnCaP cell uptake

O=C(O)CC[C@H](NC(=O)N[C@@H](CCCCNC(=O)[C@H](Cc1ccc2ccccc2c1)NC(=O)[C@H]1CC[C@H](CNC(=O)CN2CCN(CC(=O)O)CCN(CC(=O)O)CCN(CC(=O)O)CC2)CC1)C(=O)O)C(=O)O [VWT001500, PSMA-617]
Cellular uptake results, internalization rate%: 9.57%
Cellular uptake results, uptake rate%: 1.01%
